Assays:
[1] = system: Magnaporthe grisea (Pyricularia oryzae); experiment: microbe, parasite or virus in culture; type: cell-based; conditions: 72 h, read-out: control of Magnaporthe grisea
[2] = system: Botryotinia fuckeliana (Botrytis cinerea); experiment: Botryotinia fuckeliana (Botrytis cinerea) / liquid culture (gray mould); type: cell-based; conditions: growth inhibition determined photometrically 3-4 days after application, vs untreated control, read-out: disease control
Fusarium culmorum = experiment: microbe, parasite or virus in culture; type: cell-based; conditions: 72 h, read-out: disease control
[3] = system: Mycosphaerella graminicola (Septoria tritici); experiment: Mycosphaerella graminicola (Septoria tritici) / liquid culture (Septoria blotch); type: cell-based; conditions: Zymoseptoria tritici, 96 h, growth inhibition determined photometrically 4-5 days after application, vs untreated control, read-out: disease control
[4] = system: Monographella nivalis (Microdochium nivale); experiment: Monographella nivalis (Microdochium nivale) / liquid culture (foot rot cereals); type: cell-based; conditions: 96 h, growth inhibition determined photometrically 4-5 days after application, vs untreated control, read-out: disease control
[5] = system: Glomerella lagenarium (Colletotrichum lagenarium); experiment: Glomerella lagenarium (Colletotrichum lagenarium) / liquid culture (anthracnose); type: cell-based; conditions: Colletotrichum orbiculare, growth inhibition measured photometrically 3-4 days after application, vs untreated control, read-out: disease control
Pyrenophora teres = Pyrenophora teres / liquid culture (net blotch); type: cell-based; conditions: growth inhibition determined photometrically 3-4 days after application, vs untreated control
Gaeumannomyces graminis = Gaeumannomyces graminis / liquid culture (take-all of cereals); type: cell-based; conditions: growth inhibition determined photometrically 4-5 days after application, vs untreated control, read-out: disease control
Sclerotinia sclerotiorum = Sclerotinia sclerotiorum / liquid culture (cottony rot); conditions: 72 h, read-out: control of Sclerotinia sclerotiorum
Method: Sclerotinia sclerotiorum/Liquid Culture (Cottony Rot)
Mycelia fragments of a newly grown liquid culture of the fungus are directly mixed into nutrient broth (Vogels broth). After placing a (DMSO) solution of test compound into a microtiter plate (96-well format) the nutrient broth containing the fungal material is added. The test plates are incubated at 24° C. and the inhibition of growth is determined photometrically 3-4 days after application.

SMILES | inhibition of growth at 20 ppm [1] [%] | inhibition of growth at 200 ppm [2] [%] | melting point [°C] | inhibition of growth at 200 ppm (Fusarium culmorum) [%] | inhibition of growth at 200 ppm [3] [%] | inhibition of growth at 200 ppm [4] [%] | inhibition of growth at 200 ppm [5] [%] | inhibition of growth at 20 ppm (Pyrenophora teres) [%] | inhibition of growth at 200 ppm (Gaeumannomyces graminis) [%] | inhibition of growth at 20 ppm (Sclerotinia sclerotiorum) [%]
Cc1ccc2c(ncn2C2=NC(C)(C)C(=O)c3cc(Cl)ccc32)c1C [E-36] | ≥ 80 | ≥ 80 | 196 to 199 | ≥ 80 | ≥ 80 | – | – | – | – | –
Cc1ccc2c(ncn2C2=NC(C)(C)C(F)(F)c3ccccc32)c1C [E-23] | ≥ 80 | ≥ 80 | – | ≥ 80 | – | ≥ 80 | ≥ 80 | ≥ 80 | ≥ 80 | ≥ 80
CC1(C)N=C(n2cnc3c(F)c(F)ccc32)c2cccc(F)c2C1(C)C [E-50] | ≥ 80 | ≥ 80 | 112 to 114 | ≥ 80 | ≥ 80 | ≥ 80 | ≥ 80 | – | – | –
Cc1ccc2c(ncn2C2=NC(C)(C)C(C)(C)c3c(F)cccc32)c1C [E-18] | ≥ 80 | ≥ 80 | – | ≥ 80 | ≥ 80 | ≥ 80 | ≥ 80 | ≥ 80 | ≥ 80 | ≥ 80
Cc1cccc2c1C(F)(F)C(C)(C)N=C2n1cnc2c(C)cccc21 [E-21] | ≥ 80 | ≥ 80 | – | ≥ 80 | ≥ 80 | ≥ 80 | ≥ 80 | ≥ 80 | ≥ 80 | ≥ 80
Cc1c(F)ccc2c1ncn2C1=NC(C)(C)C(F)(F)c2ccccc21 [E-32] | ≥ 80 | ≥ 80 | 118 to 121 | ≥ 80 | ≥ 80 | ≥ 80 | ≥ 80 | – | ≥ 80 | ≥ 80
Cc1c(F)ccc2c1ncn2C1=NC(C)(C)C(=O)c2cc(Cl)ccc21 [E-35] | ≥ 80 | ≥ 80 | 133 to 136 | ≥ 80 | ≥ 80 | – | – | – | – | –
CC1(C)N=C(n2cnc3c4c(ccc32)CCC4)c2ccccc2C1(F)F [E-55] | ≥ 80 | ≥ 80 | – | ≥ 80 | ≥ 80 | ≥ 80 | ≥ 80 | – | – | ≥ 80
Cc1cccc2c1ncn2C1=NC(C)(C)C(=O)c2cc(Cl)ccc21 [E-34] | ≥ 80 | ≥ 80 | 129 to 133 | ≥ 80 | ≥ 80 | ≥ 80 | – | – | – | –
Cc1cccc2c1ncn2C1=NC(C)(C)C2(CC2)c2ccccc21 [E-9] | ≥ 80 | ≥ 80 | – | ≥ 80 | – | ≥ 80 | ≥ 80 | ≥ 80 | ≥ 80 | –
CC1(C)N=C(n2cnc3c(Br)cccc32)c2cccc(F)c2C1(C)C [E-4] | ≥ 80 | ≥ 80 | 48 to 49 | ≥ 80 | – | ≥ 80 | ≥ 80 | ≥ 80 | ≥ 80 | –
Cc1cccc2c1C(=O)C(C)(C)N=C2n1cnc2c(C)c(C)ccc21 [E-27] | ≥ 80 | ≥ 80 | 145 to 149 | ≥ 80 | – | ≥ 80 | ≥ 80 | ≥ 80 | – | ≥ 80
Cc1c(Cl)ccc2c1ncn2C1=NC(C)(C)C(F)(F)c2ccccc21 [E-33] | ≥ 80 | ≥ 80 | – | ≥ 80 | ≥ 80 | ≥ 80 | ≥ 80 | – | ≥ 80 | ≥ 80
CC1(C)N=C(n2cnc3c(F)cccc32)c2cccc(F)c2C1(C)C [E-7] | ≥ 80 | ≥ 80 | – | ≥ 80 | – | ≥ 80 | ≥ 80 | ≥ 80 | ≥ 80 | –
Cc1ccc2c(ncn2C2=NC(C)(C)Cc3cc(F)ccc32)c1C [E-57] | ≥ 80 | ≥ 80 | 143 to 145 | ≥ 80 | ≥ 80 | ≥ 80 | ≥ 80 | – | – | ≥ 80
Cc1ccc2c(ncn2C2=NC(C)(C)C(F)(F)c3c(F)cccc32)c1C [E-19] | ≥ 80 | ≥ 80 | – | ≥ 80 | – | ≥ 80 | ≥ 80 | ≥ 80 | ≥ 80 | ≥ 80
Cc1ccc2c(ncn2C2=NC(C)(C)C(C)(C)c3c(F)cccc32)c1F [E-60] | ≥ 80 | ≥ 80 | – | ≥ 80 | ≥ 80 | ≥ 80 | ≥ 80 | – | ≥ 80 | –
CC1(C)N=C(n2cnc3c(Cl)cccc32)c2cccc(F)c2C1(C)C [E-17] | ≥ 80 | ≥ 80 | 50 to 51 | ≥ 80 | – | ≥ 80 | ≥ 80 | ≥ 80 | ≥ 80 | ≥ 80
Cc1cc2ncn(C3=NC(C)(C)C(C)(C)c4c(F)cccc43)c2cc1C [E-30] | ≥ 80 | ≥ 80 | – | ≥ 80 | ≥ 80 | ≥ 80 | ≥ 80 | – | ≥ 80 | ≥ 80
Cc1cccc2c1C(F)(F)C(C)(C)N=C2n1cnc2c(C)c(C)ccc21 [E-22] | ≥ 80 | ≥ 80 | – | ≥ 80 | ≥ 80 | ≥ 80 | ≥ 80 | ≥ 80 | – | ≥ 80
Cc1cccc2c1ncn2C1=NCC2(CCC2)c2ccccc21 [E-54] | ≥ 80 | ≥ 80 | – | – | ≥ 80 | ≥ 80 | ≥ 80 | – | – | –
Cc1cccc2c1ncn2C1=NCC2(CCCC2)c2ccccc21 [E-53] | ≥ 80 | ≥ 80 | – | – | ≥ 80 | ≥ 80 | – | – | – | –
Cc1ccc2c(ncn2C2=NC(C)(C)C(F)(F)c3cc(F)ccc32)c1C [E-56] | ≥ 80 | ≥ 80 | – | ≥ 80 | ≥ 80 | ≥ 80 | ≥ 80 | – | – | ≥ 80
Cc1ccc2c(ncn2C2=NC(C)(C)C(=O)c3ccccc32)c1C [E-25] | ≥ 80 | ≥ 80 | 159 to 161 | ≥ 80 | – | ≥ 80 | ≥ 80 | ≥ 80 | – | ≥ 80
CCc1cccc2c1ncn2C1=NC(C)(C)C(C)(C)c2c(F)cccc21 [E-14] | ≥ 80 | ≥ 80 | 87 to 88 | ≥ 80 | – | ≥ 80 | ≥ 80 | ≥ 80 | ≥ 80 | –
Cc1cccc2c1ncn2C1=NC(C)(C)C(F)(F)c2ccccc21 [E-15] | ≥ 80 | ≥ 80 | – | ≥ 80 | – | ≥ 80 | ≥ 80 | ≥ 80 | ≥ 80 | ≥ 80
